What was measured:
Type in all cases: in vivo
[1] = system: barnyardgrass (Echinochloa crus-galli); assay: Test A pre-/postemergence plant response; conditions: for Barnyardgrass plant response rating: visual injury, 0 to 100 scale (0 no effect, 100 complete control), approx. ten days
Method in brief: (§1)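 Injury scores (0, no effect; 100, complete control) come from visual comparison with untreated controls roughly ten days post-treatment. Test chemicals in a surfactant-containing non-phytotoxic solvent were applied as a directed soil spray preemergence and to one- to two-leaf seedlings postemergence.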

corn (Zea mays) = assay: Test A pre-/postemergence plant response; conditions: for Corn plant response rating: visual injury, 0 to 100 scale (0 no effect, 100 complete control), approx. ten days
Method in brief: as §1

[2] = system: giant foxtail (Setaria faberii); assay: Test A pre-/postemergence plant response; conditions: for Foxtail, Giant plant response rating: visual injury, 0 to 100 scale (0 no effect, 100 complete control), approx. ten days
Method in brief: as §1

[3] = system: large crabgrass (Digitaria sanguinalis); assay: Test A pre-/postemergence plant response; conditions: for Crabgrass, Large plant response rating: visual injury, 0 to 100 scale (0 no effect, 100 complete control), approx. ten days
Method in brief: as §1

[4] = system: morningglory (Ipomoea spp.); assay: Test A pre-/postemergence plant response
Method in brief: as §1

[5] = system: pigweed (Amaranthus retroflexus); assay: Test A pre-/postemergence plant response; conditions: for Pigweed plant response rating: visual injury, 0 to 100 scale (0 no effect, 100 complete control), approx. ten days
Method in brief: as §1

[6] = system: velvetleaf (Abutilon theophrasti); assay: Test A pre-/postemergence plant response; conditions: for Velvetleaf plant response rating: visual injury, 0 to 100 scale (0 no effect, 100 complete control), approx. ten days
Method in brief: as §1

[7] = system: wheat (Triticum aestivum); assay: Test A pre-/postemergence plant response; conditions: for Wheat plant response rating: visual injury, 0 to 100 scale (0 no effect, 100 complete control), approx. ten days
Method in brief: as §1

[8] = system: barnyardgrass (Echinochloa crus-galli); assay: Test B flooded paddy test; conditions: for Plant response rating, Flood, Barnyardgrass: 250 g ai/ha, flooded paddy test, visual rating on 0 to 100 scale (0 no effect, 100 complete control) after 13 to 15 days; for Plant response rating, Barnyardgrass: Flood (flooded paddy test), 13 to 15 days; for Barnyardgrass plant response rating: Flood, 31 g ai/ha, scale 0 to 100 (0 no effect, 100 complete control)
Method in brief: (§2)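 Each compound is added to standing floodwater (3 cm above soil, maintained) in pots of 2-leaf-stage plants; greenhouse exposure lasts 13–15 d before visual comparison with controls on a 0–100 control scale.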

[9] = system: ducksalad (Heteranthera limosa); assay: Test B flooded paddy test; conditions: for Plant response rating, Flood, Ducksalad: 250 g ai/ha, flooded paddy test, visual rating on 0 to 100 scale (0 no effect, 100 complete control) after 13 to 15 days; for Plant response rating, Ducksalad: Flood (flooded paddy test), 13 to 15 days; for Ducksalad plant response rating: Flood, 31 g ai/ha, scale 0 to 100 (0 no effect, 100 complete control)
Method in brief: as §2

rice (Oryza sativa) = assay: Test B flooded paddy test; conditions: for Plant response rating, Flood, Rice: 250 g ai/ha, flooded paddy test, visual rating on 0 to 100 scale (0 no effect, 100 complete control) after 13 to 15 days; for Plant response rating, Rice: Flood (flooded paddy test), 13 to 15 days; for Rice plant response rating: Flood, 31 g ai/ha, scale 0 to 100 (0 no effect, 100 complete control)
Method in brief: as §2

[10] = system: umbrella sedge (Cyperus difformis); assay: Test B flooded paddy test; conditions: for Plant response rating, Flood, Sedge, Umbrella: 250 g ai/ha, flooded paddy test, visual rating on 0 to 100 scale (0 no effect, 100 complete control) after 13 to 15 days; for Plant response rating, Sedge, Umbrella: Flood (flooded paddy test), 13 to 15 days; for Sedge, Umbrella plant response rating: Flood, 31 g ai/ha, scale 0 to 100 (0 no effect, 100 complete control)
Method in brief: as §2

[11] = Postemergence, 125 g ai/ha, 0 to 100 scale where 0 is no effect and 100 is complete control
[12] = Preemergence, 125 g ai/ha, 0 to 100 scale, 0 = no effect, 100 = complete control
[13] = Preemergence, 500 g ai/ha, 0 to 100 scale, 0 = no effect, 100 = complete control
[14] = 62 g ai/ha, scale of 0 to 100 where 0 is no effect and 100 is complete control
[15] = 125 g ai/ha, scale 0 to 100, 0 is no effect, 100 is complete control

CCc1cccc(-c2ncc(C(=O)C3=C(O)CCCC3=O)c(=O)n2C2CCCCC2)c1 [Compound 194]
Plant response rating, Barnyardgrass [1, 11]: 90
Barnyardgrass plant response rating ([1]; Postemergence, 500 g ai/ha): 100
Plant response rating, Barnyardgrass [1, 12]: 0
Plant response rating, Barnyardgrass [1, 13]: 40
Plant response rating, Corn (corn (Zea mays); [11]): 0
Corn plant response rating (corn (Zea mays); Postemergence, 500 g ai/ha): 10
Plant response rating, Corn (corn (Zea mays); [12]): 0
Plant response rating, Corn (corn (Zea mays); [13]): 0
Plant response rating, Foxtail, Giant [2, 11]: 30
Foxtail, Giant plant response rating ([2]; Postemergence, 500 g ai/ha): 50
Plant response rating, Crabgrass, Large [3, 11]: 60
Crabgrass, Large plant response rating ([3]; Postemergence, 500 g ai/ha): 90
Plant response rating, Crabgrass, Large [3, 12]: 20
Plant response rating, Crabgrass, Large [3, 13]: 40
Plant response rating, Morningglory [4, 11]: 90
Morningglory plant response rating ([4]; Postemergence, 500 g ai/ha, visual injury, 0 to 100 scale (0 no effect, 100 complete control), approx. ten days): 100
Plant response rating, Morningglory [4, 13]: 20
Plant response rating, Pigweed [5, 11]: 100
Pigweed plant response rating ([5]; Postemergence, 500 g ai/ha): 100
Plant response rating, Pigweed [5, 12]: 50
Plant response rating, Pigweed [5, 13]: 100
Plant response rating, Velvetleaf [6, 11]: 100
Velvetleaf plant response rating ([6]; Postemergence, 500 g ai/ha): 100
Plant response rating, Velvetleaf [6, 12]: 30
Plant response rating, Velvetleaf [6, 13]: 70
Plant response rating, Wheat [7, 11]: 0
Wheat plant response rating ([7]; Postemergence, 500 g ai/ha): 0
Plant response rating, Wheat [7, 12]: 0
Plant response rating, Wheat [7, 13]: 0
Plant response rating, Flood, Barnyardgrass [8]: 15
Plant response rating, Barnyardgrass [8, 14]: 0
Plant response rating, Barnyardgrass [8, 15]: 10
Barnyardgrass plant response rating [8]: 0
Plant response rating, Flood, Ducksalad [9]: 80
Plant response rating, Ducksalad [9, 14]: 50
Plant response rating, Ducksalad [9, 15]: 50
Ducksalad plant response rating [9]: 40
Plant response rating, Flood, Rice (rice (Oryza sativa)): 0
Plant response rating, Rice (rice (Oryza sativa); [14]): 0
Plant response rating, Rice (rice (Oryza sativa); [15]): 0
Rice plant response rating (rice (Oryza sativa)): 0
Plant response rating, Flood, Sedge, Umbrella [10]: 65
Plant response rating, Sedge, Umbrella [10, 14]: 0
Plant response rating, Sedge, Umbrella [10, 15]: 0
Sedge, Umbrella plant response rating [10]: 0

O=C1CCCC(O)=C1C(=O)c1cnc(-c2cccc(C(F)(F)F)c2)n(C2CCCCC2)c1=O [Compound 195]
Plant response rating, Barnyardgrass [1, 11]: 70
Barnyardgrass plant response rating ([1]; Postemergence, 500 g ai/ha): 90
Plant response rating, Barnyardgrass [1, 12]: 0
Plant response rating, Barnyardgrass [1, 13]: 10
Plant response rating, Corn (corn (Zea mays); [11]): 0
Corn plant response rating (corn (Zea mays); Postemergence, 500 g ai/ha): 20
Plant response rating, Corn (corn (Zea mays); [12]): 0
Plant response rating, Corn (corn (Zea mays); [13]): 0
Plant response rating, Foxtail, Giant [2, 11]: 30
Foxtail, Giant plant response rating ([2]; Postemergence, 500 g ai/ha): 70
Plant response rating, Foxtail, Giant [2, 12]: 0
Plant response rating, Foxtail, Giant [2, 13]: 30
Plant response rating, Crabgrass, Large [3, 11]: 40
Crabgrass, Large plant response rating ([3]; Postemergence, 500 g ai/ha): 90
Plant response rating, Crabgrass, Large [3, 12]: 0
Plant response rating, Crabgrass, Large [3, 13]: 50
Plant response rating, Morningglory [4, 11]: 60
Plant response rating, Morningglory [4, 12]: 0
Plant response rating, Morningglory [4, 13]: 0
Plant response rating, Pigweed [5, 11]: 90
Pigweed plant response rating ([5]; Postemergence, 500 g ai/ha): 100
Plant response rating, Pigweed [5, 12]: 0
Plant response rating, Pigweed [5, 13]: 10
Plant response rating, Velvetleaf [6, 11]: 100
Velvetleaf plant response rating ([6]; Postemergence, 500 g ai/ha): 100
Plant response rating, Velvetleaf [6, 12]: 0
Plant response rating, Velvetleaf [6, 13]: 50
Plant response rating, Wheat [7, 11]: 0
Wheat plant response rating ([7]; Postemergence, 500 g ai/ha): 0
Plant response rating, Wheat [7, 12]: 0
Plant response rating, Wheat [7, 13]: 20
Plant response rating, Flood, Barnyardgrass [8]: 20
Plant response rating, Barnyardgrass [8, 14]: 0
Plant response rating, Barnyardgrass [8, 15]: 0
Barnyardgrass plant response rating [8]: 0
Plant response rating, Flood, Ducksalad [9]: 85
Plant response rating, Ducksalad [9, 14]: 50
Plant response rating, Ducksalad [9, 15]: 70
Ducksalad plant response rating [9]: 0
Plant response rating, Flood, Rice (rice (Oryza sativa)): 15
Plant response rating, Rice (rice (Oryza sativa); [14]): 0
Plant response rating, Rice (rice (Oryza sativa); [15]): 0
Rice plant response rating (rice (Oryza sativa)): 0
Plant response rating, Flood, Sedge, Umbrella [10]: 65
Plant response rating, Sedge, Umbrella [10, 14]: 0
Plant response rating, Sedge, Umbrella [10, 15]: 50
Sedge, Umbrella plant response rating [10]: 0

— patent US8952024B2, “Herbicidal pyrimidone derivatives” (E I du Pont de Nemours and Company, priority 2009, dated 2015)
